Assay results reported in patent EP0726263A2, “Herbicidal (1,3,4)oxadiazoles and thiadiazoles” (American Cyanamid Company, priority 1995, dated 1996).

Legend:
Assay type in all cases: in vivo
[1] = test system: Chenopodium album; test: Herbicidal activity, preemergence test; details: pre; sprayed onto soil, 800 g of active material per hectare; evaluated 3 weeks after treatment
Method: (§1) To evaluate their herbicidal activity, compounds according to the invention are tested using a representative range of plants: TRZAW Triticum aestivum HORVW Hordeum vulgare ZEAMX Zea mays GOSHI Gossypium hirsutum HELAN Helianthus annuus GLYMA Glycine max ALOMY Alopecurus myosuroides SETVI Setaria viridis ECHCG Echinochloa crus-galli GALAP Galium aparine STEME Stellaria media VERPE Veronica persica VIOAR Viola arvensis IPOHE Ipomoea hederacea LAMPU Lamium purpureum PAPRH Papaver rhoeas MATIN Matricaria inodora AMARE Amaranthus retroflexus ABUTH Abutilon theophrasti AMBEL Ambrosia artemisifolia CHEAL Chenopodium album
(§2) The tests fall into two categories, preemergence and postemergence. The preemergence tests involve spraying a liquid formulation of the compound onto the soil in which the seeds have recently been sown. The postemergence tests involve spraying a liquid formulation of the compound onto seedling plants.
(§3) The soil used in the tests is a prepared horticultural loam.
(§4) The formulations used in the tests are prepared from solutions of the test compounds in acetone containing 0.4% by weight of an alkylphenol/ethylene oxide condensate available under the trade mark TRITON X-155. These acetone solutions are diluted with water and the resulting formulations applied at dosage levels corresponding to 800 g of active material per hectare in a volume equivalent to 900 litres per hectare.
(§5) In the preemergence tests untreated sown soil and in the postemergence tests untreated soil bearing seedling plants are used as controls.
(§6) Results of herbicide evaluation are expressed on a rating scale (0-9). The scale is based upon a visual observation of plant stand, vigor, malformation, size, chlorosis, and general plant appearance as compared to a control. Preemergence and postemergence treatments are evaluated at 3 and 2 weeks after treatment, respectively.

[2] = test system: Matricaria inodora; test: Herbicidal activity, preemergence test; details: pre; sprayed onto soil, 800 g of active material per hectare; evaluated 3 weeks after treatment
Method: as §1, §2, §3, §4, §5, §6

[3] = test system: Lamium purpureum; test: Herbicidal activity, preemergence test; details: pre; sprayed onto soil, 800 g of active material per hectare; evaluated 3 weeks after treatment
Method: as §1, §2, §3, §4, §5, §6

[4] = test system: Stellaria media; test: Herbicidal activity, preemergence test; details: pre; sprayed onto soil, 800 g of active material per hectare; evaluated 3 weeks after treatment
Method: as §1, §2, §3, §4, §5, §6

[5] = test system: Gossypium hirsutum; test: Herbicidal activity, preemergence test; details: pre; sprayed onto soil, 800 g of active material per hectare; evaluated 3 weeks after treatment
Method: as §1, §2, §3, §4, §5, §6

[6] = test system: Glycine max; test: Herbicidal activity, preemergence test; details: pre; sprayed onto soil, 800 g of active material per hectare; evaluated 3 weeks after treatment
Method: as §1, §2, §3, §4, §5, §6

[7] = test system: Ipomoea hederacea; test: Herbicidal activity, preemergence test; details: pre; sprayed onto soil, 800 g of active material per hectare; evaluated 3 weeks after treatment
Method: as §1, §2, §3, §4, §5, §6

[8] = test system: Papaver rhoeas; test: Herbicidal activity, preemergence test; details: pre; sprayed onto soil, 800 g of active material per hectare; evaluated 3 weeks after treatment
Method: as §1, §2, §3, §4, §5, §6

[9] = test system: Setaria viridis; test: Herbicidal activity, preemergence test; details: pre; sprayed onto soil, 800 g of active material per hectare; evaluated 3 weeks after treatment
Method: as §1, §2, §3, §4, §5, §6

[10] = test system: Amaranthus retroflexus; test: Herbicidal activity, preemergence test; details: pre; sprayed onto soil, 800 g of active material per hectare; evaluated 3 weeks after treatment
Method: as §1, §2, §3, §4, §5, §6

[11] = test system: Abutilon theophrasti; test: Herbicidal activity, preemergence test; details: pre; sprayed onto soil, 800 g of active material per hectare; evaluated 3 weeks after treatment
Method: as §1, §2, §3, §4, §5, §6

[12] = test system: Triticum aestivum; test: Herbicidal activity, preemergence test; details: pre; sprayed onto soil, 800 g of active material per hectare; evaluated 3 weeks after treatment
Method: as §1, §2, §3, §4, §5, §6

[13] = test system: Zea mays; test: Herbicidal activity, preemergence test; details: pre; sprayed onto soil, 800 g of active material per hectare; evaluated 3 weeks after treatment
Method: as §1, §2, §3, §4, §5, §6

[14] = test system: Veronica persica; test: Herbicidal activity, preemergence test; details: pre; sprayed onto soil, 800 g of active material per hectare; evaluated 3 weeks after treatment
Method: as §1, §2, §3, §4, §5, §6

[15] = test system: Alopecurus myosuroides; test: Herbicidal activity, preemergence test; details: pre; sprayed onto soil, 800 g of active material per hectare; evaluated 3 weeks after treatment
Method: as §1, §2, §3, §4, §5, §6

[16] = test system: Hordeum vulgare; test: Herbicidal activity, preemergence test; details: pre; sprayed onto soil, 800 g of active material per hectare; evaluated 3 weeks after treatment
Method: as §1, §2, §3, §4, §5, §6

[17] = test system: Galium aparine; test: Herbicidal activity, preemergence test; details: pre; sprayed onto soil, 800 g of active material per hectare; evaluated 3 weeks after treatment
Method: as §1, §2, §3, §4, §5, §6

[18] = test system: Ambrosia artemisifolia; test: Herbicidal activity, preemergence test; details: pre; sprayed onto soil, 800 g of active material per hectare; evaluated 3 weeks after treatment
Method: as §1, §2, §3, §4, §5, §6

[19] = test system: Chenopodium album; test: Herbicidal activity, postemergence test; details: post; sprayed onto seedling plants, 800 g of active material per hectare; evaluated 2 weeks after treatment
Method: as §1, §2, §3, §4, §5, §6

[20] = test system: Matricaria inodora; test: Herbicidal activity, postemergence test; details: post; sprayed onto seedling plants, 800 g of active material per hectare; evaluated 2 weeks after treatment
Method: as §1, §2, §3, §4, §5, §6

[21] = test system: Lamium purpureum; test: Herbicidal activity, postemergence test; details: post; sprayed onto seedling plants, 800 g of active material per hectare; evaluated 2 weeks after treatment
Method: as §1, §2, §3, §4, §5, §6

[22] = test system: Stellaria media; test: Herbicidal activity, postemergence test; details: post; sprayed onto seedling plants, 800 g of active material per hectare; evaluated 2 weeks after treatment
Method: as §1, §2, §3, §4, §5, §6

[23] = test system: Gossypium hirsutum; test: Herbicidal activity, postemergence test; details: post; sprayed onto seedling plants, 800 g of active material per hectare; evaluated 2 weeks after treatment
Method: as §1, §2, §3, §4, §5, §6

[24] = test system: Glycine max; test: Herbicidal activity, postemergence test; details: post; sprayed onto seedling plants, 800 g of active material per hectare; evaluated 2 weeks after treatment
Method: as §1, §2, §3, §4, §5, §6

[25] = test system: Ipomoea hederacea; test: Herbicidal activity, postemergence test; details: post; sprayed onto seedling plants, 800 g of active material per hectare; evaluated 2 weeks after treatment
Method: as §1, §2, §3, §4, §5, §6

[26] = test system: Papaver rhoeas; test: Herbicidal activity, postemergence test; details: post; sprayed onto seedling plants, 800 g of active material per hectare; evaluated 2 weeks after treatment
Method: as §1, §2, §3, §4, §5, §6

[27] = test system: Setaria viridis; test: Herbicidal activity, postemergence test; details: post; sprayed onto seedling plants, 800 g of active material per hectare; evaluated 2 weeks after treatment
Method: as §1, §2, §3, §4, §5, §6

[28] = test system: Amaranthus retroflexus; test: Herbicidal activity, postemergence test; details: post; sprayed onto seedling plants, 800 g of active material per hectare; evaluated 2 weeks after treatment
Method: as §1, §2, §3, §4, §5, §6

[29] = test system: Abutilon theophrasti; test: Herbicidal activity, postemergence test; details: post; sprayed onto seedling plants, 800 g of active material per hectare; evaluated 2 weeks after treatment
Method: as §1, §2, §3, §4, §5, §6

[30] = test system: Triticum aestivum; test: Herbicidal activity, postemergence test; details: post; sprayed onto seedling plants, 800 g of active material per hectare; evaluated 2 weeks after treatment
Method: as §1, §2, §3, §4, §5, §6

[31] = test system: Zea mays; test: Herbicidal activity, postemergence test; details: post; sprayed onto seedling plants, 800 g of active material per hectare; evaluated 2 weeks after treatment
Method: as §1, §2, §3, §4, §5, §6

[32] = test system: Veronica persica; test: Herbicidal activity, postemergence test; details: post; sprayed onto seedling plants, 800 g of active material per hectare; evaluated 2 weeks after treatment
Method: as §1, §2, §3, §4, §5, §6

[33] = test system: Alopecurus myosuroides; test: Herbicidal activity, postemergence test; details: post; sprayed onto seedling plants, 800 g of active material per hectare; evaluated 2 weeks after treatment
Method: as §1, §2, §3, §4, §5, §6

[34] = test system: Hordeum vulgare; test: Herbicidal activity, postemergence test; details: post; sprayed onto seedling plants, 800 g of active material per hectare; evaluated 2 weeks after treatment
Method: as §1, §2, §3, §4, §5, §6

[35] = test system: Galium aparine; test: Herbicidal activity, postemergence test; details: post; sprayed onto seedling plants, 800 g of active material per hectare; evaluated 2 weeks after treatment
Method: as §1, §2, §3, §4, §5, §6

[36] = test system: Ambrosia artemisifolia; test: Herbicidal activity, postemergence test; details: post; sprayed onto seedling plants, 800 g of active material per hectare; evaluated 2 weeks after treatment
Method: as §1, §2, §3, §4, §5, §6

Row | SMILES | CHEAL control rating (0-9) [1] | MATIN control rating (0-9) [2] | LAMPU control rating (0-9) [3] | STEME control rating (0-9) [4] | GOSHI control rating (0-9) [5] | GLXMA control rating (0-9) [6] | IPOHE control rating (0-9) [7] | PAPRH control rating (0-9) [8] | SETVI control rating (0-9) [9] | AMARE control rating (0-9) [10] | ABUTH control rating (0-9) [11] | TRZAW control rating (0-9) [12] | ZEAMX control rating (0-9) [13] | VERPE control rating (0-9) [14] | ALOMY control rating (0-9) [15] | HORVW control rating (0-9) [16] | GALAP control rating (0-9) [17] | AMBEL control rating (0-9) [18] | CHEAL control rating (0-9) [19] | MATIN control rating (0-9) [20] | further results
1 | C[C@H](NC(=O)c1nnc(C=Cc2ccccc2)o1)c1ccccc1 [Example 17] | 0 (no effect) | 0 (no effect) | 0 (no effect) | 0 (no effect) | 9 (complete kill) | 0 (no effect) | 0 (no effect) | 5 (definite injury) | 0 (no effect) | 0 (no effect) | 0 (no effect) | 0 (no effect) | 0 (no effect) | 3 (moderate effect) | 0 (no effect) | 0 (no effect) | 0 (no effect) | 0 (no effect) | 5 (definite injury) | 0 (no effect) | LAMPU control rating (0-9) [21]: 6 (herbicidal effect); STEME control rating (0-9) [22]: 0 (no effect); GOSHI control rating (0-9) [23]: 3 (moderate effect); GLXMA control rating (0-9) [24]: 0 (no effect); IPOHE control rating (0-9) [25]: 1 (trace effect); PAPRH control rating (0-9) [26]: 5 (definite injury); SETVI control rating (0-9) [27]: 0 (no effect); AMARE control rating (0-9) [28]: 4 (injury); ABUTH control rating (0-9) [29]: 1 (trace effect); TRZAW control rating (0-9) [30]: 0 (no effect); ZEAMX control rating (0-9) [31]: 1 (trace effect); VERPE control rating (0-9) [32]: 3 (moderate effect); ALOMY control rating (0-9) [33]: 0 (no effect); HORVW control rating (0-9) [34]: 0 (no effect); GALAP control rating (0-9) [35]: 2 (slight effect); AMBEL control rating (0-9) [36]: 0 (no effect)
2 | COc1ccc(-c2nnc(C(=O)N[C@@H](C)c3ccccc3)o2)cc1 [Example 19] | 9 (complete kill) | 7 (good herbicidal effect) | 8 (approaching complete kill) | 6 (herbicidal effect) | 0 (no effect) | 0 (no effect) | 0 (no effect) | 9 (complete kill) | 7 (good herbicidal effect) | 9 (complete kill) | 1 (trace effect) | 0 (no effect) | 0 (no effect) | 9 (complete kill) | 0 (no effect) | 0 (no effect) | 0 (no effect) | 0 (no effect) | 8 (approaching complete kill) | 6 (herbicidal effect) | LAMPU control rating (0-9) [21]: 8 (approaching complete kill); STEME control rating (0-9) [22]: 8 (approaching complete kill); GOSHI control rating (0-9) [23]: 9 (complete kill); GLXMA control rating (0-9) [24]: 4 (injury); IPOHE control rating (0-9) [25]: 6 (herbicidal effect); PAPRH control rating (0-9) [26]: 7 (good herbicidal effect); SETVI control rating (0-9) [27]: 9 (complete kill); AMARE control rating (0-9) [28]: 8 (approaching complete kill); ABUTH control rating (0-9) [29]: 9 (complete kill); TRZAW control rating (0-9) [30]: 2 (slight effect); ZEAMX control rating (0-9) [31]: 3 (moderate effect); VERPE control rating (0-9) [32]: 9 (complete kill); ALOMY control rating (0-9) [33]: 3 (moderate effect); HORVW control rating (0-9) [34]: 3 (moderate effect); GALAP control rating (0-9) [35]: 5 (definite injury); AMBEL control rating (0-9) [36]: 7 (good herbicidal effect)
